Measured values reported in publication PMC6628320, “Poly-Saturated Dolichols from Filamentous Fungi Modulate Activity of Dolichol-Dependent Glycosyltransferase and Physical Properties of Membranes” (International Journal of Molecular Sciences, 2019).

Legend:
Experiment in all cases: radiometric GDP[…]mannose transfer, membrane fraction, organic-phase counting
Format in all cases: biochemical
Conditions in all cases: GDP[14C]mannose co-substrate, 10 mM MgCl2, 0.1% Nonidet P-40, pH 7.4, 30 °C, 5 min; 50 µL assay (amount, not concentration)
[1] = target: T1, ScDPMS (DPMS from S. cerevisiae) (Saccharomyces cerevisiae, UniProt P14020)
T1 construct: gene DPM1; native enzyme in yeast membrane fraction, not purified; Type I, exclusively Dpm1 subunit
T1 sequence (P14020 2-267): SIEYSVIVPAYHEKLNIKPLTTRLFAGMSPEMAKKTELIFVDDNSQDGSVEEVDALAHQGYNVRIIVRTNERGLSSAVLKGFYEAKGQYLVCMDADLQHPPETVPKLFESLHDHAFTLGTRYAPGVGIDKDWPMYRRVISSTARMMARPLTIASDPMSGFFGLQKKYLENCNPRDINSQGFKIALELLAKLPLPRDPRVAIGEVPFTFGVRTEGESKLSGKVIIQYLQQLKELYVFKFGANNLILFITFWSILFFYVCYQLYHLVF

[2] = target: T2, TrDPMS (DPMS from T. reesei) (Trichoderma reesei, UniProt G0R8U7)
T2 construct: gene dpm1; native Dpm1/Dpm2/Dpm3 complex in the membrane fraction of T. reesei, not purified; with Dolichol phosphate-mannose biosynthesis regulatory protein; Dolichol-phosphate mannosyltransferase subunit 3
T2 sequence (G0R8U7 1-243): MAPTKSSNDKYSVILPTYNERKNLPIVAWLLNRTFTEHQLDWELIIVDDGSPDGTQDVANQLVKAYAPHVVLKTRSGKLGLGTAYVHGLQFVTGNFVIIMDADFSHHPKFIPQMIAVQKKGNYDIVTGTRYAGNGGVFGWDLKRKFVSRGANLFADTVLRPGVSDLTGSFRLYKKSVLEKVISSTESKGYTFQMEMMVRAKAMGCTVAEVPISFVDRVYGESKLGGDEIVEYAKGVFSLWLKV
T2 sequence (C6KF57 1-92 partner): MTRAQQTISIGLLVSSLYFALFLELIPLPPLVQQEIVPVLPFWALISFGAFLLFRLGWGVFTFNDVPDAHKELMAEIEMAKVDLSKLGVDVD
T2 sequence (C6KF56 1-80 partner): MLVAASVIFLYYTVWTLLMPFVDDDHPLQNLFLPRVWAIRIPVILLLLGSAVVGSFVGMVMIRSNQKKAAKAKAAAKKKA

[3] = target: T3, TrDPMS-1,3 (T. reesei Dpm1,3 expressed in S. cerevisiae) (Trichoderma reesei, UniProt G0R8U7)
T3 construct: dpm1Tr (p415 GPD LEU) and dpm3Tr (pESC-URA) in S. cerevisiae dpm1dr∆ mutant; yeast membrane fraction; Dpm2 omitted; with Dolichol-phosphate mannosyltransferase subunit 3
T3 sequence (G0R8U7 entry or part of it): as the sequence (G0R8U7 1-243) above
T3 sequence (C6KF57 entry or part of it, further chain): as the sequence (C6KF57 1-92 partner) above

Q: `CC(C)=CCC/C(C)=C/CC/C(C)=C/CC/C(C)=C\CC/C(C)=C\CC/C(C)=C\CC/C(C)=C\CC/C(C)=C\CC/C(C)=C\CC/C(C)=C\CCC(C)CCOP(=O)(O)O` (stereo not drawn) [Dol-P11] was tested. Which “S. cerevisiae / Km” value [1] did it give?
A: 730 ng

Q: What about the “T. reesei / Km” value [2] of the same compound?
A: 3500 ng

Q: And the “S. cerevisiae / Km” value [3]?
A: 730 ng
